{"source": "patent US12503446B2", "about": "“Bromodomain inhibitors” (FORSCHUNGSZENTRUM JÜLICH GMBH, priority 2019, dated 2025)", "key": {"[1]": {"test_system": "HEL cells", "test": "Viability from trypan blue staining, HEL", "format": "cell-based", "details": "5 μM, compared to PFI-1", "description": "(§1) Cell count and viability was determined after trypan blue staining. The appropriate concentrations of the inhibitors per ml of medium were added, or the correspondingly highest volume of DMSO was added as control group.\nDuring the study of cell proliferation, the viability of the cell lines was likewise determined from the trypan blue staining. Trypan blue cannot penetrate into living cells."}, "[2]": {"test_system": "PBMC or CD34+ cells from healthy donors", "test": "CFU assay, healthy controls", "format": "cell-based, human", "description": "(§2) With the aid of the CFU assay, it is possible to determine the colony-forming capacity of individual cells in a semisolid methylcellulose medium (MethoCult H4434, StemCell Technologies, Cologne, Germany). The number of colonies was determined after 7-11 days.\nCD34+ cells (G-CSF mobilized from stem cell donors) from healthy donors: 2×10^4 cells/ml; PBMCs from the healthy subjects: 4×10^5 cells/ml.\nFor this purpose, mononuclear cells (PBMC: mononuclear cells from peripheral blood) or CD34-positive stem cells (CD34+ cells) were isolated from the blood of four healthy controls and three AML or MPN patients and introduced into semisolid medium, to each of which 1 μM or 5 μM of MFS-2 or PFI-1 have been added. Individual cells in the CFU assay form cell colonies in culture after 12 days, unless the formation thereof is prevented by inhibitors."}, "[3]": {"test_system": "Molm-14 cells", "test": "Cell cycle analysis (propidium iodide, flow cytometry), Molm-14", "format": "cell-based", "details": "compared to PFI-1", "description": "(§3) The influence of the inhibitors used on the cell cycle was examined by means of propidium iodide staining of the fixed cells. For this purpose, the cells were fixed with 95% ethanol at −20° C., RNA was destroyed by RNase (100 μg/ml) at 37° C. for […], and the DNA was stained by means of propidium iodide (50 μg/ml). Using a flow cytometer (Gallios (Beckman Coulter, Krefeld, Germany)), the cell cycle phases were analysed, and the data were evaluated by means of FlowJo Software (Version 10).\n(§4) During the proliferation, the cells go through different stages of the cell cycle in which genomic DNA is replicated, the cell nucleus is broken down and cell division takes place, resulting in two identical cells."}, "[4]": {"test_system": "HEL cells", "test": "Proliferation assay, cell count after trypan blue staining, HEL", "format": "cell-based", "details": "1 or 5 μM, 24-72 h, by comparison with PFI-1", "description": "as §1\nThe cell growth described here is referred to as proliferation, and gives information as to the cell divisions that proceeded in the specified period."}, "[5]": {"test_system": "mononuclear cells from AML patients", "test": "CFU assay, AML patients", "format": "cell-based, human", "description": "as §2\nMononuclear cells from the bone marrow from AML patients: 7×10^5 cells/ml\nVital sterile mononuclear bone marrow cells from AML patients were cultured for 24 h in 1.5 ml of BIT Medium in 8.5 ml of IMDM medium (to which had been added 5 μl of FLT3 ligand, 10 μl of rh SCF, 2 μl of rh IL-3, 2 μl of rh G-CSF, 50 μl of ciprofloxacin and 6.99 μl of β-mercaptoethanol in 1:100 dilution), before they were used in the CFU assay.\n(§5) Individual cells in the CFU assay form cell colonies in culture after 12 days, unless the formation thereof is prevented by inhibitors."}, "[6]": {"test_system": "PARP1 cleavage in HEL cells", "test": "PARP1 cleavage Western blot (apoptosis), HEL", "format": "cell-based", "details": "5 μM", "description": "Cell lysates were produced with RIPA lysis buffer (50 mM Tris pH 7.4, 150 mM sodium chloride, 1 mM EDTA, 1% Triton-X, 15% glycerol, 0.5% sodium deoxycholate, and protease/phosphatase inhibitors). Protein concentrations were determined by the Bradford Protein Assay using a Nanodrop Spectrometer (NanoDrop 2000/2000c system, Thermo Fisher Scientific, Darmstadt, Germany) at 595 nm. To 25 μg of protein lysates was added 4xLämmli sample buffer, followed by denaturing at 65° C. for 5 min and introduction into the SDS-Page. The proteins were transferred by the wet blot method in Towbin buffer (3 g Tris, 14.4 g glycine, 5% methanol per litre of ddH2O) to a PVDF membrane at 100 mA overnight. The membrane was blocked with 10% BSA in TBS-T buffer (20 mM Tris-HCl, pH 7.6, 137 mM NaCl, 0.05% IGEPAL). The primary antibodies were incubated at 4° C. overnight, and the HRP-labelled antibodies at room temperature with the membrane for […]. The proteins were detected by means of PCA-ECL solution using a chemiluminescence detector (Fusion SL, PeqLab).\nIn addition, a possible induction of apoptosis in the cell lines described by compound MF2 was examined. […] Protein concentrations were determined with the Bradford protein assay using a Nanodrop Spectrometer at 595 nm. […] The proteins were detected by means of PCA-ECL solution using a chemiluminescence detector (Fusion SL, PeqLab). […]"}, "[7]": {"test_system": "BRD4", "test": "Thermal shift assay (BromoMELT assay), BRD4", "format": "binding", "details": "10 μM, duplicates, versus DMSO control", "description": "The experiment was conducted in duplicates at a concentration of 10 μM."}, "[8]": {"test_system": "HEL cells", "test": "Cell cycle analysis (propidium iodide, flow cytometry), HEL", "format": "cell-based", "details": "compared to PFI-1", "description": "as §3, §4"}, "[9]": {"test_system": "mononuclear cells from MPN patients (JAK2V617F-positive)", "test": "CFU assay, MPN patients (PV, PMF, ET)", "format": "cell-based, human", "description": "as §2\nPBMCs from PV, ET or PMF patients: 4×10^5 cells/ml\nas §5\nMyeloproliferative neoplasia includes three conventional Philadelphia chromosome-negative (BCR-ABL-negative) disease entities: polycythemia vera (PV), essential thrombocythaemia (ET) and primary myelofibrosis (PMF). Both PV and ET can progress to become myelofibrosis (MF), which usually means a fatal deterioration in the disease state and in the success of treatment. All the MPN patients involved in these studies were JAK2V617F-positive."}}}
{"smiles": "CN1Cc2cc(N=[S@@](C)(=O)c3ccccc3)ccc2NC1=O", "note": "[MF2-S, (S)—N-(3-methyl-2-oxo-1,2,3,4-tetrahydroquinazolin-6-yl)-S-methyl-S-phenylsulfoximine]", "values": [{"measurement": "viability of HEL cells", "setting": "[1]", "result": "significantly reduced the viability"}, {"measurement": "colony count, healthy CD34+ controls 3 and 4", "setting": "[2]; 1 μM", "result": "reduced the colony count of the controls to a lesser degree"}, {"measurement": "colony count, healthy control 4", "setting": "[2]; 1 μM", "result": "not significantly reduced"}, {"measurement": "colony count, healthy controls 1 (PBMC) and 2 (CD34+ cells)", "setting": "[2]; 5 μM", "result": "likewise reduced the amount of colonies"}, {"measurement": "subG1 phase (percentage of dead cells), Molm-14", "setting": "[3]", "result": "significantly higher proportions"}, {"measurement": "synthesis phase (S phase) of cell cycle, Molm-14", "setting": "[3]", "result": "more significantly inhibited by MF2-S than by PFI-1"}, {"measurement": "cell proliferation (cell count) of HEL", "setting": "[4]", "result": "significantly reduced the cell proliferation"}, {"measurement": "colony count, AML patients, 1 μM versus 5 μM PFI-1", "setting": "[5]; 1 μM", "result": "just as efficient as 5 μM PFI-1"}, {"measurement": "colony count, AML patients", "setting": "[5]; 1 μM and 5 μM, compared to PFI-1 at same concentration", "result": "reduced the colony count to a significantly greater degree than PFI-1"}, {"measurement": "band for the PARP1 cleavage product, HEL", "setting": "[6]; 48 h, compared to PFI-1", "result": "more marked in HEL cells than in the case of PFI-1 treatment"}, {"measurement": "induction of apoptosis, HEL", "setting": "[6]; compared to MF2, MF2-R, PFI-1", "result": "induced apoptosis more strongly than the other compounds examined"}, {"measurement": "binding / specificity for BRD4 (ΔTm, in words)", "setting": "[7]", "result": "more specific binding of BRD4"}, {"measurement": "subG1 phase (percentage of dead cells), HEL", "setting": "[8]", "result": "significantly higher proportions"}, {"measurement": "synthesis phase (S phase) of cell cycle, HEL", "setting": "[8]", "result": "more significantly inhibited by MF2-S than by PFI-1"}, {"measurement": "colony count, PMF patient", "setting": "[9]; 1 μM", "result": "very efficiently reduced the colony count"}, {"measurement": "colony count, MPN patients", "setting": "[9]; 5 μM, compared to PFI-1", "result": "significantly greater reduction in each case in the colony count"}]}
